A short description of this data set: Solubility / dissolution in water and solid form stability of caspofungin propionate. In kind it is physicochemical.

Consider `CCC(C)CC(C)CCCCCCCCC(=O)N[C@H]1C[C@@H](O)[C@@H](NCCN)NC(=O)[C@@H]2[C@@H](O)CCN2C(=O)[C@H]([C@H](O)CCN)NC(=O)[C@H]([C@H](O)[C@@H](O)c2ccc(O)cc2)NC(=O)[C@@H]2C[C@@H](O)CN2C(=O)[C@H]([C@@H](C)O)NC1=O` (stereo partly drawn) [Caspofungin dipropionate, caspofungin dipropionate], for which, under “533.5 mg crystalline salt in 5 ml aqueous mannitol 40 mg/ml / sucrose 60 mg/ml”, the time to dissolve was at most 3 min.
On to `CCC(C)CC(C)CCCCCCCCC(=O)N[C@H]1C[C@@H](O)[C@@H](NCCN)NC(=O)[C@@H]2[C@@H](O)CCN2C(=O)[C@H]([C@H](O)CCN)NC(=O)[C@H]([C@H](O)[C@@H](O)c2ccc(O)cc2)NC(=O)[C@@H]2C[C@@H](O)CN2C(=O)[C@H]([C@@H](C)O)NC1=O` (stereo partly drawn) [Crystalline caspofungin propionate, caspofungin propionate], for which the solubility in water result was “freely soluble in water”. Also, the “stability of solid form” value (crystalline versus amorphous form) is given as “more stable than the amorphous form”.

The values above are taken from patent US8232245B2, “Caspofungin formulations” (Sandoz AG, priority 2006, dated 2012).
